Drawing on patent publication US11033539B2, “Compounds of formulas (VII), (VIII), (IX), (XI), (XII), (XIII), and (XIV) as muscarinic receptor 4(M4) antagonists for treating neurological diseases” (Neurocrine Biosciences, Inc., priority 2015, dated 2021), this text covers Ki for 25 compounds.

Each structure is given as a SMILES string.

Test [1] has as its target human M2 receptor (Homo sapiens (Human), UniProt P08172). Kind of test: Radioligand (tritiated N-methylscopolamine) binding assay, M2. As to conditions: CHO cell membranes expressing human M2; 1.5 nM tritiated N-methylscopolamine; 90 min, 37° C.; read-out: Ki against M2 receptor (Table 21, M2). The gist of the method: (§1)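 Membranes came from recombinant CHO cells expressing human muscarinic subtypes and were incubated with compound and [3H]NMS (1.5 nM) in HEPES/NaCl/MgCl2/EDTA buffer, pH 7.4, at 37° C for 90 min. Twelve-point dose-response (printed 10–[…]). Filter-bound radioactivity was counted and Ki values derived.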

Test [2] has as its target human M3 receptor (Homo sapiens (Human), UniProt P20309). The experiment in a line: Radioligand (tritiated N-methylscopolamine) binding assay, M3. As to conditions: CHO cell membranes expressing human M3; 1.5 nM tritiated N-methylscopolamine; 90 min, 37° C.; read-out: Ki against M3 receptor (Table 21, M3). An outline of the steps: as §1
Test [3] concerns the target human M5 receptor (Homo sapiens (Human), UniProt P08912). The experiment in a line: Radioligand (tritiated N-methylscopolamine) binding assay, M5. As to conditions: CHO cell membranes expressing human M5; 1.5 nM tritiated N-methylscopolamine; 90 min, 37° C.; read-out: Ki against M5 receptor (Table 21, M5). The gist of the method:
as §1

Test [4] deals with human M4 receptor (Homo sapiens (Human), UniProt P08173). The experiment in a line: Radioligand (tritiated N-methylscopolamine) binding assay, M4. As to conditions: Ki against the M4 receptor; membranes from CHO cells expressing human M4; tritiated N-methylscopolamine 1.5 nM; read-out: Ki. The gist of the method:
as §1

Test [5] addresses human M1 receptor (Homo sapiens (Human), UniProt P11229). The experiment in a line: Radioligand (tritiated N-methylscopolamine) binding assay, M1. As to conditions: CHO cell membranes expressing human M1; 1.5 nM tritiated N-methylscopolamine; 90 min, 37° C.; read-out: Ki against M1 receptor (Table 21, M1). An outline of the steps:
as §1

Chain of human M3 receptor (P20309 whole entry): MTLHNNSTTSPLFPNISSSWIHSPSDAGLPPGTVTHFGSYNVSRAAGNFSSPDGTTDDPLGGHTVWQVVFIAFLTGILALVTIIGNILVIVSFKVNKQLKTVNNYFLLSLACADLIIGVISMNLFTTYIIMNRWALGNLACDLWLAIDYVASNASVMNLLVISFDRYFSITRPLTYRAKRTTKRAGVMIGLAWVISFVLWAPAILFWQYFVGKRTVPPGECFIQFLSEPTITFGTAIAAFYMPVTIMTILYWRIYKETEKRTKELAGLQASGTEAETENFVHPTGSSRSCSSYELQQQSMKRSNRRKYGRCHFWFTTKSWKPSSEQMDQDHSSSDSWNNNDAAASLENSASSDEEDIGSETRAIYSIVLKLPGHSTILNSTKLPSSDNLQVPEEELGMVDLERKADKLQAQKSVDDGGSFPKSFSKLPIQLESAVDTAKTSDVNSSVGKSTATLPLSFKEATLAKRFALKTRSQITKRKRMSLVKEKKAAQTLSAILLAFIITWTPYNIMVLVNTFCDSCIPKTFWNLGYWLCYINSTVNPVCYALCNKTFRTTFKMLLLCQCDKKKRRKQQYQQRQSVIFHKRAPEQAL
Chain of human M4 receptor (P08173 whole entry): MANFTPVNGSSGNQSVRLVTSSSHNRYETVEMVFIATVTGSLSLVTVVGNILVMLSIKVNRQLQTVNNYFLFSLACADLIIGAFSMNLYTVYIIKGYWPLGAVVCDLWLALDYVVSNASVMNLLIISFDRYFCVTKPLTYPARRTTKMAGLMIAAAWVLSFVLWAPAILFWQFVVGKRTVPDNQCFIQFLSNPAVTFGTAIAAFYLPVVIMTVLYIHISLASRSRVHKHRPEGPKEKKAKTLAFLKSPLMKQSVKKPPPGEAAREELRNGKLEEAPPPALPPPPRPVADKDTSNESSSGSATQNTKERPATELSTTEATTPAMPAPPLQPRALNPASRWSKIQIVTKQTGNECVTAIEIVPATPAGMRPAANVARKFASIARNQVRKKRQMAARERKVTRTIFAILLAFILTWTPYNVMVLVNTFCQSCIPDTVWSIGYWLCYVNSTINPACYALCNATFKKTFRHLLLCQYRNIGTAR
Chain of human M5 receptor (P08912 whole entry): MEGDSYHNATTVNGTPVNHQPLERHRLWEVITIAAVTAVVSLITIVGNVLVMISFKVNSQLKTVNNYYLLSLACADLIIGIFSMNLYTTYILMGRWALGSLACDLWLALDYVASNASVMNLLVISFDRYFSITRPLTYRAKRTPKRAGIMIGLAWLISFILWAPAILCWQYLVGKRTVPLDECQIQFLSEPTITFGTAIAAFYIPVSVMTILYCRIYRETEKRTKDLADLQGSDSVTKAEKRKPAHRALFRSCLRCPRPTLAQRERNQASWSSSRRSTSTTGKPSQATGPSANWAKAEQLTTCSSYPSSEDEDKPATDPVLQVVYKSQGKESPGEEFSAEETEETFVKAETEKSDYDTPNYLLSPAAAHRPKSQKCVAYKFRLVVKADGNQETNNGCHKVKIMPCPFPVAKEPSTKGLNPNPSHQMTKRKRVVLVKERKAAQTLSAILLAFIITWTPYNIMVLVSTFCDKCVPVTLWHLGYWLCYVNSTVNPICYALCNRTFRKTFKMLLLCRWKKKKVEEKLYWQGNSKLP
Chain of human M1 receptor (P11229 whole entry): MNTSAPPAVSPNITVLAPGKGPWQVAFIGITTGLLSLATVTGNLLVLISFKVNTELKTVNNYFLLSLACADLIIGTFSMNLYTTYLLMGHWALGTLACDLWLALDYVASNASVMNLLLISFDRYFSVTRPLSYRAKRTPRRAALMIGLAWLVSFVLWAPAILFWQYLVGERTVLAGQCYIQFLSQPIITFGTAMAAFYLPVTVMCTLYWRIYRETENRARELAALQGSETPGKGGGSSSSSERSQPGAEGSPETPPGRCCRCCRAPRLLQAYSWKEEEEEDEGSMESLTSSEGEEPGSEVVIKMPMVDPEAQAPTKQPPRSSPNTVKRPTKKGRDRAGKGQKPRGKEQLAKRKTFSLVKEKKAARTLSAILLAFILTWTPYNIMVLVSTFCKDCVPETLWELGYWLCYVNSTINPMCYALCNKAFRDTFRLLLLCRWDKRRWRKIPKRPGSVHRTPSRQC
Chain of human M2 receptor (P08172 whole entry): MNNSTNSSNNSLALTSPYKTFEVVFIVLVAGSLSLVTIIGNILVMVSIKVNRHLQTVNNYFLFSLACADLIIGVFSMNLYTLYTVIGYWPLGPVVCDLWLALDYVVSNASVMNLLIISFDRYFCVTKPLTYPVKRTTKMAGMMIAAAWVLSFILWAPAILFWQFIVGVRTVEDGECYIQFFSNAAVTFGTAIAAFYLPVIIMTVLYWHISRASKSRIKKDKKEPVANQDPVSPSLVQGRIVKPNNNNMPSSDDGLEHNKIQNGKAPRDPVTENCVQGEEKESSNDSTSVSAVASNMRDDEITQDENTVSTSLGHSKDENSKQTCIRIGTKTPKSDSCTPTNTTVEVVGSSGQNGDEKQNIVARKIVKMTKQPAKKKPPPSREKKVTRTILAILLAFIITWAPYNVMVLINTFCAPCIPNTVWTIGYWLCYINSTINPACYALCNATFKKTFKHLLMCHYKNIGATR

As a reminder, the Ki is the equilibrium dissociation constant of an inhibitor or competing ligand from its target. As to `C[C@H]1CN(c2ccc(C(F)(F)F)cn2)CCC1C(=O)NCCC1CCN(Cc2ccccc2)CC1` (stereo partly drawn) [10-80, (3R)-N-[2-(1-benzylpiperidin-4-yl)ethyl]-3-methyl-1-[5-(trifluoromethyl)pyridin-2-yl]piperidine-4-carboxamide], the Ki in test [1] is 10 to 100 nM; in test [2], 100 to 1000 nM; in test [3], 100 to 1000 nM; in test [4], less than 10 nM; in test [5], 10 to 100 nM.

As to `C[C@H]1CN(c2ncc(C(F)(F)F)cc2F)CCC1C(=O)NCCC1CCN(Cc2ccccc2)CC1` (stereo partly drawn) [10-81, (3R)-N-[2-(1-benzylpiperidin-4-yl)ethyl]-1-[3-fluoro-5-(trifluoromethyl)pyridin-2-yl]-3-methylpiperidine-4-carboxamide], the Ki was 10 to 100 nM in test [1]; 10 to 100 nM in test [2]; 100 to 1000 nM in test [3]; less than 10 nM in test [4]; 10 to 100 nM in test [5].

For the compound `Cc1c(C(=O)NCCC2CCN(Cc3ccccc3)CC2)cnc2cc(-c3cccc(C(F)(F)F)c3)nn12` [17-1, N-[2-(1-benzylpiperidin-4-yl)ethyl]-7-methyl-2-[3-(trifluoromethyl)phenyl]pyrazolo[1,5-a]pyrimidine-6-carboxamide], the Ki was 100 to 1000 nM in test [1]; more than 1000 nM in test [2]; more than 1000 nM in test [3]; less than 10 nM in test [4]; more than 1000 nM in test [5].

As for `Cc1c(C(=O)NCCC2(O)CCN(Cc3ccccc3)CC2)cnc2cc(-c3cccc(C(F)(F)F)c3)nn12` [17-3, N-[2-(1-benzyl-4-hydroxypiperidin-4-yl)ethyl]-7-methyl-2-[3-(trifluoromethyl)phenyl]pyrazolo[1,5-a]pyrimidine-6-carboxamide], the inhibition constant Ki in test [1] was 100 to 1000 nM; in test [2], more than 1000 nM; in test [3], more than 1000 nM; in test [4] it was less than 10 nM; in test [5] it was 100 to 1000 nM.

With `Cc1c(C(=O)NC[C@@H](O)C2CCN(Cc3ccccc3)CC2)cnc2cc(-c3cccc(C(F)(F)F)c3)nn12` [17-5, N-[(2S)-2-(1-benzylpiperidin-4-yl)-2-hydroxyethyl]-7-methyl-2-[3-(trifluoromethyl)phenyl]pyrazolo[1,5-a]pyrimidine-6-carboxamide], the inhibitory constant (Ki) in test [1] is 10 to 100 nM; in test [2] it was more than 1000 nM; in test [3], more than 1000 nM; in test [4] it was less than 10 nM; in test [5], 100 to 1000 nM.

`Cc1c(C(=O)NC[C@H](O)C2CCN(Cc3ccccc3)CC2)cnc2cc(-c3cccc(C(F)(F)F)c3)nn12` [17-6, N-[(2R)-2-(1-benzylpiperidin-4-yl)-2-hydroxyethyl]-7-methyl-2-[3-(trifluoromethyl)phenyl]pyrazolo[1,5-a]pyrimidine-6-carboxamide]: the Ki in test [1] was 100 to 1000 nM; in test [2], more than 1000 nM; in test [3], more than 1000 nM; in test [4], less than 10 nM; in test [5], more than 1000 nM.

As for `Cc1c(C(=O)NCCC2CCN(Cc3ccccc3)CC2)cnc2cc(-c3ccc(F)cc3F)nn12` [18-1, N-[2-(1-benzylpiperidin-4-yl)ethyl]-2-(2,4-difluorophenyl)-7-methyl-pyrazolo[1,5-a]pyrimidine-6-carboxamide], the inhibition constant Ki in test [1] is 10 to 100 nM; in test [2] it was more than 1000 nM; in test [3], more than 1000 nM; in test [4] it was less than 10 nM; in test [5], more than 1000 nM.

For the compound `Cc1c(C(=O)NCCC2CCN(Cc3ccccc3)CC2)cnc2cc(-c3ccc(F)cc3)nn12` [18-4], the Ki was 100 to 1000 nM in test [1]; more than 1000 nM in test [2]; more than 1000 nM in test [3]; less than 10 nM in test [4]; 100 to 1000 nM in test [5].

For `Cc1c(C(=O)NCCC2CCN(Cc3ccccc3)CC2)cnc2cc(-c3cc(F)cc(F)c3)nn12` [18-5], the Ki in test [1] is 100 to 1000 nM; in test [2], more than 1000 nM; in test [3], more than 1000 nM; in test [4], less than 10 nM; in test [5] it was more than 1000 nM.

On to `Cc1c(C(=O)NCCC2CCN(Cc3ccccc3)CC2)cnc2cc(-c3cccc(OC(F)(F)F)c3)nn12` [18-16], for which the Ki is 100 to 1000 nM in test [1]; more than 1000 nM in test [2]; more than 1000 nM in test [3]; less than 10 nM in test [4]; more than 1000 nM in test [5].

Turning to `Cc1c(C(=O)NCCC2CCN(Cc3ccccc3)CC2)cnc2cc(-c3cc(F)c(F)c(F)c3)nn12` [18-17], the Ki in test [1] was 100 to 1000 nM; in test [2], more than 1000 nM; in test [3], more than 1000 nM; in test [4], less than 10 nM; in test [5], more than 1000 nM.

On to `C[C@H]1CN(c2ncc(C(F)(F)F)cn2)CCC1C(=O)NCCC1CCN(Cc2ccccc2)CC1` (stereo partly drawn) [20-2, (3R)-N-[2-(1-benzylpiperidin-4-yl)ethyl]-3-methyl-1-[5-(trifluoromethyl)pyrimidin-2-yl]piperidine-4-carboxamide], for which the Ki is 10 to 100 nM in test [1]; 10 to 100 nM in test [2]; 100 to 1000 nM in test [3]; less than 10 nM in test [4]; 10 to 100 nM in test [5].

As for `C[C@H]1CN(c2ncc(Cl)cn2)CCC1C(=O)NCCC1CCN(Cc2ccccc2)CC1` (stereo partly drawn) [20-3, (3R)-N-[2-(1-benzylpiperidin-4-yl)ethyl]-1-(5-chloropyrimidin-2-yl)-3-methylpiperidine-4-carboxamide], the Ki in test [1] is 100 to 1000 nM; in test [2], 100 to 1000 nM; in test [3], more than 1000 nM; in test [4] it was less than 10 nM; in test [5], 100 to 1000 nM.

In the case of `C[C@@H]1CN(c2ncc(C#N)cn2)C[C@H](C)N1C(=O)NCCC1CCN(CC[Si](C)(C)C)CC1` [21-7], the inhibitory constant (Ki) in test [1] is less than 10 nM; in test [2], 10 to 100 nM; in test [3], 100 to 1000 nM; in test [4], less than 10 nM; in test [5], 10 to 100 nM.

Turning to `C[C@@H]1CN(c2ccc(C#N)cc2)C[C@H](C)N1C(=O)NCCC1CCN(Cc2ccccc2)CC1` [22-2], the inhibition constant (Ki) was 100 to 1000 nM in test [1]; more than 1000 nM in test [2]; more than 1000 nM in test [3]; less than 10 nM in test [4]; more than 1000 nM in test [5].

As for `C[C@@H]1CN(c2ccc(C#N)cc2F)C[C@H](C)N1C(=O)NCCC1CCN(Cc2ccccc2)CC1` [22-3], the Ki in test [1] was 100 to 1000 nM; in test [2], more than 1000 nM; in test [3] it was more than 1000 nM; in test [4], less than 10 nM; in test [5] it was more than 1000 nM.

For the compound `C[C@@H]1CN(c2ccc(C#N)c(F)c2)C[C@H](C)N1C(=O)NCCC1CCN(Cc2ccccc2)CC1` [22-4], the Ki in test [1] is 10 to 100 nM; in test [2], more than 1000 nM; in test [3] it was more than 1000 nM; in test [4] it was less than 10 nM; in test [5] it was more than 1000 nM.

Take `C[C@@H]1CN(c2ncc(F)cc2F)C[C@H](C)N1C(=O)NCCC1CCN(Cc2ccccc2)CC1` [22-5, (2R,6S)-N-[2-(1-benzylpiperidin-4-yl)ethyl]-4-(3,5-difluoropyridin-2-y1)-2,6-dimethylpiperazine-1-carboxamide]: the Ki in test [1] is 10 to 100 nM; in test [2], more than 1000 nM; in test [3] it was 100 to 1000 nM; in test [4] it was less than 10 nM; in test [5], 100 to 1000 nM.

In the case of `C[C@@H]1CN(c2cc(F)c(F)c(Cl)c2)C[C@H](C)N1C(=O)NCCC1CCN(Cc2ccccc2)CC1` [22-7], the Ki in test [1] is 10 to 100 nM; in test [2], 100 to 1000 nM; in test [3], 100 to 1000 nM; in test [4] it was less than 10 nM; in test [5] it was 100 to 1000 nM.

In the case of `C[C@@H]1CN(c2cnc(Cl)c(F)c2)C[C@H](C)N1C(=O)NCCC1CCN(Cc2ccccc2)CC1` [22-8], the Ki was 10 to 100 nM in test [1]; more than 1000 nM in test [2]; more than 1000 nM in test [3]; less than 10 nM in test [4]; 100 to 1000 nM in test [5].

For `C[C@@H]1CN(c2cc(F)c(C#N)c(F)c2)C[C@H](C)N1C(=O)NCCC1CCN(Cc2ccccc2)CC1` [22-9], the Ki in test [1] was 10 to 100 nM; in test [2] it was more than 1000 nM; in test [3], more than 1000 nM; in test [4], less than 10 nM; in test [5], 100 to 1000 nM.

`C[C@@H]1CN(c2cc(F)c(C#N)cc2F)CCN1C(=O)NCCC1CCN(Cc2ccccc2)CC1` [22-10]: the Ki in test [1] is 100 to 1000 nM; in test [2], more than 1000 nM; in test [3] it was more than 1000 nM; in test [4] it was less than 10 nM; in test [5], more than 1000 nM.

In the case of `C[C@@H]1CN(c2cc(F)c(C#N)c(F)c2)CCN1C(=O)NCCC1CCN(Cc2ccccc2)CC1` [22-12], the Ki in test [1] was 10 to 100 nM; in test [2] it was more than 1000 nM; in test [3] it was 100 to 1000 nM; in test [4] it was less than 10 nM; in test [5], more than 1000 nM.

Turning to `C[C@@H]1CN(c2cc(F)c(Cl)c(F)c2)CCN1C(=O)NCCC1CCN(Cc2ccccc2)CC1` [22-13], the Ki is 10 to 100 nM in test [1]; 100 to 1000 nM in test [2]; 100 to 1000 nM in test [3]; less than 10 nM in test [4]; 100 to 1000 nM in test [5].

As for `C[C@@H]1CN(c2ccc(Cl)c(F)c2)CCN1C(=O)NCCC1CCN(Cc2ccccc2)CC1` [22-14], the Ki was 10 to 100 nM in test [1]; 100 to 1000 nM in test [2]; 100 to 1000 nM in test [3]; less than 10 nM in test [4]; 100 to 1000 nM in test [5].
